In brackets after ≈: the same amount, converted by molar mass. Like-named read-outs stand apart in the source and are kept apart here.
Key:
[1] = tested on: HIV-1 IIIB strain; experiment: MT-4 HIV Wild Type Virus Infection Assay (IIIB Virus); assay type: cell-based; conditions: Human immunodeficiency virus 1, IIIB, MT4, 120 h, MT-4 cells acutely infected with HIV-1 IIIB, 5 day incubation, Cell-titer glo
Method: Test compounds and controls were serially diluted and spotted in replicate into 384 well black assay plates via acoustic transfer (Echo). MT-4 cells were grown in batch, centrifuged and resuspended into fresh CCM media (RPMI w/10% FBS, 1% PS) at 2×10^6 cells/ml. MT-4 cells were acutely infected with HIV-1 IIIB strain. The size of each infection mix was scaled by the number of sample plates to be tested. Each infection mix was transferred into 5 mL closed tubes and nutated rapidly on a shaker at 37° C. incubator for 1 hour. The infection mixes were then diluted 25× in fresh cell culture media and then added to assay plates at 40 μL per well using a ViaFlo 384 pipettor. After 5 day incubation at 37° C. in a CO2 incubator, assay plates were processed with Cell-titer glo reagent using a ViaFlo 384 with an addition/mixing program. Plates were read immediately on Envision reader. Assay signals were plotted and dose response curves generated to determine individual compound EC50s.

[2] = target: bovine intestinal alkaline phosphatase (Bos taurus (Bovine), UniProt P19111); experiment: BiALP: conversion by bovine intestinal alkaline phosphatase; assay type: in vitro ADME; conditions: 2 μM substrate, 100 ng/mL iALP, Tris pH 7.8, 37° C., 60 minutes; for [Intermediate A] or [Amprenavir]: parent formed
Sequence of bovine intestinal alkaline phosphatase (P19111 20-506): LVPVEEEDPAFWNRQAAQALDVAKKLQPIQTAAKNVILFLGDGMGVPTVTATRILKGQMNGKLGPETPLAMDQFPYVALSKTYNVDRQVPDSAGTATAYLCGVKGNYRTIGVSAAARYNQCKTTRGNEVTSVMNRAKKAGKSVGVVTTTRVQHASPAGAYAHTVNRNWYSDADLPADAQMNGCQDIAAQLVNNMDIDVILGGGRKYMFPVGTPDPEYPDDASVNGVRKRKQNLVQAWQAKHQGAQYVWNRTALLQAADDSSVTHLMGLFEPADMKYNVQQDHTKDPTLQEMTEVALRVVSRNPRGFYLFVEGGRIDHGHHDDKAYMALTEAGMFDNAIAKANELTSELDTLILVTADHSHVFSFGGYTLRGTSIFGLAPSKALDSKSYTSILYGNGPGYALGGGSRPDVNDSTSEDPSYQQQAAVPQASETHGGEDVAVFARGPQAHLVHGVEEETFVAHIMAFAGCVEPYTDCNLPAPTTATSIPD
Method: Fosamprenavir and its parent compound (amprenavir) were purchased from Millipore Sigma (St. Louis, MO). Test compounds, Intermediate A, fosamprenavir, and amprenavir were each separately dissolved in dimethyl sulfoxide (DMSO) at a concentration of 10 mM to form stock solutions.
All other chemicals were purchased from Millipore Sigma (St. Louis, MO) and Thermo Fisher Scientific (Waltham, MA). […] Internal Standard/Quench (IS/Q) was 100 nM labetalol in 99:1 (v/v) acetonitrile/formic acid.
Incubations were performed with Tris buffer alone (0.1 M Tris-HCl pH 7.8 containing 1 mM MgCl2 and 1 mM ZnCl2) or the same Tris buffer further containing 100 ng/mL iALP (0.01 units/mL). Triplicate 100 μL aliquots of Tris buffer±iALP were warmed to 37° C. and the reactions were initiated by the addition of the test compound or fosamprenavir to obtain final substrate concentrations of 2 μM. Incubations were then continued at 37° C. At 60 minutes, reactions were terminated by the addition of 200 μl of IS/Q and mixed by pipette. […] Aliquots (150 μL) of the supernatants were transferred to fresh plates containing 150 μL of water. Aliquots (15 μL) of the diluted supernatants were analyzed by mass spectrometry as described below.
Quantification of the test compounds and fosamprenavir was performed by analyte/internal standard peak area ratios (PARs) with comparison to 2 μM Intermediate A and amprenavir, respectively. The LC instrumentation consisted of a Thermo Scientific Vanquish pump and a Thermo Hypersil Gold column (1.9 μm particle size, 2.1×50 mm). […] The MS instrument was a Thermo Q Exactive™ Plus operating in positive ionization mode with mass tolerance of 5 ppm and calibrated on a twice weekly basis.

[3] = PBS Stability Assay; assay type: physicochemical; conditions: buffer, pH 7.4, 2 μM, phosphate buffered saline pH 7.4; read-out: PBS T½
Method: Reagents. Stock solutions of test compounds in dimethyl sulfoxide (DMSO) having a final concentration of 10 mM were prepared and used in all experiments. Sekisui XenoTech (Kansas City, KS) provided pooled intestinal S9 fractions. All other chemicals were purchased from Sigma-Aldrich (St. Louis, MO) or VWR (West Chester, PA). Internal Standard/Quench (IS/Q) used to stop reactions was 100 nM labetalol in (by volume) formic acid (1%) and acetonitrile (99%).
PBS Stability Assay: For each test compound, an aliquot of the test compound was added to phosphate buffered saline (137 mM NaCl, 2.7 mM KCl, 10 mM phosphate buffer), pH 7.4. The incubation was initiated by the addition of the test compound to PBS to a final concentration of 2 μM. At 0, 10, 20, 30, 60 and 120 min, 25 μL aliquots of the incubation mixture were transferred to plates containing 225 μl of IS/Q solution. After quenching, the plates were centrifuged at 3000×g for 30 minutes. 150 μL aliquots of each supernatant were transferred to new plates and 150 μL water was added. Aliquots (10 μL) of the prepared samples were analyzed on a Thermo Q-Exactive mass spectrometer as described below.
Liquid Chromatography-Mass Spectrometry: Quantification of test compounds and control substrate was performed by analyte/internal standard peak area ratio (PAR) values measured on a Thermo Q-Exactive mass spectrometer coupled to a Dionex UltiMate 3000 HPLC with a Leap Technologies HTC PAL autosampler. The column used for analysis was a Thermo Scientific Hypersil GOLD (1.9 μm particle size, 50×2.1 mm). Mobile phase A consisted of 0.1% (v/v) formic acid in water. Mobile phase B consisted of 0.1% (v/v) formic acid in acetonitrile. Elution of analytes was achieved by a series of linear gradients varying the proportions of A and B. The mass spectrometer was calibrated on a weekly basis and mass tolerance of 5 ppm was used.
Data Analysis. Metabolic stabilities were determined by measuring the rates of disappearance of test compound and positive control substrate. Data (% of substrate remaining) were plotted on a semi-log scale and fitted using an exponential decline model:
where • Ct% of substrate remaining at time=t • C0% of substrate remaining at time=0 • t time • T½ half-life • The Half-life (T½) is determined by the following equation:
[formula] • Assuming a first-order reaction, the slope (k) is extrapolated from the aforementioned plotted data.

[4] = Solubility in FaSSIF; conditions: for solubility / solubility at 2 h: 23 °C, pH 6.5, fassif, thermodynamic from solid; for solubility: FaSSIF (pH 6.5) solubility
Method: Buffer Preparation: Fasted State Simulated Intestinal Fluid (FaSSIF): Simulated Intestinal Fluid (SIF) powder containing a complex of Taurocholate and Lecithin (4:1 molar ratio) was obtained from Biorelevant. 0.056 g of SIF powder was added to 25 mL of buffer, adjusted to pH 6.5, containing 0.011 g of NaOH (pellets), 0.099 g of NaH2PO4 (monohydrate), and 0.155 g of NaCl. The buffer was prepared with HPLC H2O. The SIE powder was stirred until completely dissolved and allowed to stand for 2 hours.
Test Compounds: Each test compound was placed in a vial containing approximately 7 mg of material. Aliquots were weighed out for each assay media at each time point to be analyzed. The buffer was added to each vial such that the final dose concentration of 5 mg/mL was achieved. Samples were then vortexed for 5-10 seconds.
The plate was sealed with a pierceable heat seal and analyzed by HPLC-UV.

[5] = FaSSIF pH 6.5, dose 5 mg/mL, 2-hour incubation, ambient temperature

Row | SMILES | EC50 ([1]; read-out: EC50) [nM] | [Compound] [2] [nM] | half-life at 2 μM [3] [h] | FaSSIF (pH 6.5) solubility [4, 5] [μg/mL] | solubility [4, 5] [µg/mL] | EC50 [1] [nM] | biALP Intermediate A or [Amprenavir] (% of total) [2] | [Intermediate A] or [Amprenavir] [2] [nM] | solubility at 2 h [4] [µg/mL]
1 | COC(=O)N[C@H](C(=O)N[C@@H](Cc1ccc(C#Cc2cnc(N3CC4CCC(C3)N4C3COC3)nc2)cc1)[C@H](CN(Cc1c(F)cc(-c2ccn(C(F)F)n2)cc1F)NC(=O)[C@@H](NC(=O)OC)C(C)(C)C(F)(F)F)OC(=O)OC(C)OC(=O)CC(C)(C)c1c(CC(=O)O)cc(C)cc1OP(=O)(O)O)C(C)(C)C(F)(F)F (stereo in doubt) [Example 64] | 11.1 | 1271 | 8.43 | 165 |  |  |  |  | 
2 | COC(=O)N[C@H](C(=O)N[C@@H](Cc1ccc(C#Cc2cnc(N3CC4CCC(C3)N4C3COC3)nc2)cc1)[C@H](CN(Cc1c(F)cc(-c2ccn(C(F)F)n2)cc1F)NC(=O)[C@@H](NC(=O)OC)C(C)(C)C(F)(F)F)OC(=O)OCOC(=O)CC(C)(C)c1c(OP(=O)(O)O)cc(C(=O)O)cc1C(=O)O)C(C)(C)C(F)(F)F [Example 1] | 7.6 | 1318.1 | 8.74 |  | 5060 (≈ 3220 µM) |  |  |  | 
3 | COC(=O)N[C@H](C(=O)N[C@@H](Cc1ccc(C#Cc2cnc(N3CC4CCC(C3)N4C3COC3)nc2)cc1)[C@H](CN(Cc1c(F)cc(-c2ccn(C(F)F)n2)cc1F)NC(=O)[C@@H](NC(=O)OC)C(C)(C)C(F)(F)F)OC(=O)OCOC(=O)CC(C)(C)c1c(C)cc(C(=O)O)cc1OP(=O)(O)O)C(C)(C)C(F)(F)F [Example 2] | 2.1 | 1359.6 | 6.52 |  | 680 (≈ 440 µM) |  |  |  | 
4 | COC(=O)N[C@H](C(=O)N[C@@H](Cc1ccc(C#Cc2cnc(N3CC4CCC(C3)N4C3COC3)nc2)cc1)[C@H](CN(Cc1c(F)cc(-c2ccn(C(F)F)n2)cc1F)NC(=O)[C@@H](NC(=O)OC)C(C)(C)C(F)(F)F)OC(=O)CC(C)(C)c1c(CC(=O)N(CCCC(=O)O)CC(=O)O)cc(C)cc1OP(=O)(O)O)C(C)(C)C(F)(F)F [Example 8] |  | 1709.4 | 7.11 |  |  | 230 | 8.4 % of total | 157.3 | 3260 (≈ 2000 µM)
5 | COC(=O)N[C@H](C(=O)N[C@@H](Cc1ccc(C#Cc2cnc(N3CC4CCC(C3)N4C3COC3)nc2)cc1)[C@H](CN(Cc1c(F)cc(-c2ccn(C(F)F)n2)cc1F)NC(=O)[C@@H](NC(=O)OC)C(C)(C)C(F)(F)F)OC(=O)CC(C)(C)c1c(CC(=O)Nc2ccccn2)cc(C)cc1OP(=O)(O)O)C(C)(C)C(F)(F)F [Example 13, (5S,10S,11S,14S)-8-(4-(1-(difluoromethyl)-1H-pyrazol-3-yl)-2,6-difluorobenzyl)-11-(4-((2-(8-(oxetan-3-yl)-3,8-diazabicyclo[3.2.1]octan-3-yl)pyrimidin-5-yl)ethynyl)benzyl)-3,6,13,16-tetraoxo-5,14-bis(1,1,1-trifluoro-2-methylpropan-2-yl)-2,17-dioxa-4,7,8,12,15-pentaazaoctadecan-10-yl 3-methyl-3-(4-methyl-2-(2-oxo-2-(pyridin-2-ylamino)ethyl)-6-(phosphonooxy)phenyl)butanoate] |  | 1660.2 | 1.98 |  |  | 223 | 0.1 % of total | 1.8 | 
6 | COC(=O)N[C@H](C(=O)N[C@@H](Cc1ccc(C#Cc2cnc(N3CC4CCC(C3)N4C3COC3)nc2)cc1)[C@H](CN(Cc1c(F)cc(-c2ccn(C(F)F)n2)cc1F)NC(=O)[C@@H](NC(=O)OC)C(C)(C)C(F)(F)F)OC(=O)OCOC(=O)CC(C)(C)c1c(CC(=O)O)cc(C)cc1OP(=O)(O)O)C(C)(C)C(F)(F)F [Example 20] | 0.7 | 1351.2 | 6.5 |  | 220 (≈ 141 µM) |  | 48.6 % of total | 1276.2 | 
7 | COC(=O)N[C@H](C(=O)N[C@@H](Cc1ccc(C#Cc2cnc(N3CC4CCC(C3)N4C3COC3)nc2)cc1)[C@H](CN(Cc1c(F)cc(-c2ccn(C(F)F)n2)cc1F)NC(=O)[C@@H](NC(=O)OC)C(C)(C)C(F)(F)F)OC(=O)CC(C)(C)c1c(CC(=O)N[C@@H](CC(=O)O)C(=O)O)cc(C)cc1OP(=O)(O)O)C(C)(C)C(F)(F)F [Example 23] |  |  | 11.7 |  |  | 204 |  |  | 4540 (≈ 2840 µM)
8 | COC(=O)N[C@H](C(=O)N[C@@H](Cc1ccc(C#Cc2cnc(N3CC4CCC(C3)N4C3COC3)nc2)cc1)[C@H](CN(Cc1c(F)cc(-c2ccn(C(F)F)n2)cc1F)NC(=O)[C@@H](NC(=O)OC)C(C)(C)C(F)(F)F)OC(=O)CC(C)(C)c1c(CC(=O)NC(CCCC(=O)O)C(=O)O)cc(C)cc1OP(=O)(O)O)C(C)(C)C(F)(F)F (some centres unmarked) [Example 41] |  | 2074.8 | 5.02 |  |  | 43.5 |  |  | 
9 | COC(=O)N[C@H](C(=O)N[C@@H](Cc1ccc(C#Cc2cnc(N3CC4CCC(C3)N4C3COC3)nc2)cc1)[C@H](CN(Cc1c(F)cc(-c2ccn(C(F)F)n2)cc1F)NC(=O)[C@@H](NC(=O)OC)C(C)(C)C(F)(F)F)OC(=O)OCOC(=O)CC(C)(C)c1c(CC(=O)N2CCN(S(C)(=O)=O)CC2)cc(C)cc1OP(=O)(O)O)C(C)(C)C(F)(F)F [Example 84] |  | 1594.8 | 3.02 |  |  | 3.9 |  |  | 
